Structures are written as SMILES. Calls of active or inactive are those of the source. The calls are words filed in the database; no cut-off is given here.

The target in test [1] is T1, Tyrosinase (Agaricus bisporus) (UniProt O42713).
T1 sequence (whole entry): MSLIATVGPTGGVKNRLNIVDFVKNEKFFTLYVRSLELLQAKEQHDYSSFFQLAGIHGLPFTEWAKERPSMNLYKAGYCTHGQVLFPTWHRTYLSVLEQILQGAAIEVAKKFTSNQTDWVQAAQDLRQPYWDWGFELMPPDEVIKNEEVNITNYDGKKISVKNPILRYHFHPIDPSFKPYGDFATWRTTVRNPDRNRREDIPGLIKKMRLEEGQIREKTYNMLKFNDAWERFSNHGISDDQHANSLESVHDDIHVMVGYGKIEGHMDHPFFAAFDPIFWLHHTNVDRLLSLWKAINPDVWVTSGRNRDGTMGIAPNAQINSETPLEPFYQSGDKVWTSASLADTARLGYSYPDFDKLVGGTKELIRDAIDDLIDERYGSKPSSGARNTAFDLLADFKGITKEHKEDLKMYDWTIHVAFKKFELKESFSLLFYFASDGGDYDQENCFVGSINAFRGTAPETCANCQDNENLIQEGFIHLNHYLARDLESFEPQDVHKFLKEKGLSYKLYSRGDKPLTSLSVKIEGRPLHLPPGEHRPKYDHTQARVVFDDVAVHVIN
Briefly: Activity of mushroom tyrosinase assessed as specific activity pkat per mg of protein.

Test [2] relates to Eschscholzia californica. Briefly: Elicitor activity in Eschscholzia californica Cham. assessed as elicitation of chelirubine formation at 300 uM. Type of test: functional, organism-based.
For test [3], the system named is Eschscholzia californica. Briefly: Elicitor activity in Eschscholzia californica Cham. assessed as elicitation of chelirubine formation at 30 uM. Type of test: functional, organism-based.
Test [4] concerns Eschscholzia californica. Briefly: Elicitor activity in Eschscholzia californica Cham. assessed as elicitation of chelirubine formation. It is filed as functional, organism-based.

As to `N[C@@H](Cc1ccc(O)cc1)C(=O)O`, the Activity in test [1] was 15600.
Same read-out and setting: with `CC/C=C\CC1C(=O)CCC1CC(=O)N[C@@H](Cc1ccc(O)cc1)C(=O)O` (mixture of isomers) the figure was 2320.
As for `CC/C=C\CC1C(=O)CCC1CC(=O)NCCc1ccc(O)c(O)c1` (racemic), the outcome in test [2] and in test [3] was Active.
As to `CC/C=C\CC1C(=O)CCC1CC(=O)NCCc1ccc(O)cc1` (racemic), in test [1], the Activity worked out at 5630. Further, the outcome in test [2] and in test [3] was Active.
Regarding `CC/C=C\CC1C(=O)CCC1CC(=O)O` (racemic), the result in test [4] was Active.

(Values after ChEMBL document CHEMBL1141801, “N-(jasmonoyl)tyrosine-derived compounds from flowers of broad beans (Vicia faba)” (J Nat Prod, 2005).)
